{"source": "patent US4216164A", "about": "“Ureide inhibitors of connective tissue destruction” (American Cyanamid Company, priority 1978, dated 1980)", "key": {"[1]": {"target": "T1, human skin fibroblast collagenase (Homo sapiens, UniProt P03956)", "T1 construct": "endogenous in cells; host or cells: human skin fibroblasts", "T1 sequence (P03956 100-469)": "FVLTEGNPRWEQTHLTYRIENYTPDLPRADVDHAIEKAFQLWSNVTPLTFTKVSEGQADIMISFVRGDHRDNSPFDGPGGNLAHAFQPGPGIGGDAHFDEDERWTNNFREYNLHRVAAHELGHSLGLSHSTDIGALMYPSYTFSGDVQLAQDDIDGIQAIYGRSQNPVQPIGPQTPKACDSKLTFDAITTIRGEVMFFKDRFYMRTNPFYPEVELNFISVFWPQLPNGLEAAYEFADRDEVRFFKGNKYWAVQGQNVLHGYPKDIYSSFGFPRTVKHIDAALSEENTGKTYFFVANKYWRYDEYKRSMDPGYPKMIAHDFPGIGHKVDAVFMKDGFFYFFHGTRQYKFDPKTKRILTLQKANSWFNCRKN", "assay": "Collagenase Assay, Test Code 006", "type": "biochemical", "settings": "test conc.: 30 μg./ml.", "method": "(i) Collagenase Assay--Test Code 006\nIn a typical assay (total volume of 0.45 ml.), 100 μl. of the activated enzyme was added to the ^14 C-labeled collagen fibrils (250 μl.) followed by 100 μl. of 50 mM cacodylate, pH 7.4, containing 5 mM calcium chloride. After incubation at 37° C. for 16 hours, the tubes were centrifuged in a Beckman microfuge for five minutes at full speed. An aliquot (200 μl.) of the supernatant, representing collagenase digestion products of the fibril, was assayed for radioactivity. The effect of the test compound on collagen degradation by collagenase was examined as follows:\nAppropriate blanks and trypsin controls were run in parallel."}, "[2]": {"tested_on": "collagenase", "settings": "Thromb. Res. 1977, 10(4), 605-11; cited from earlier work"}, "[3]": {"tested_on": "corneal ulceration", "settings": "human; cited from earlier work"}, "[4]": {"tested_on": "corneal ulcerations", "settings": "alkali burned rabbit; directly applied to corneal ulcerations; cited from earlier work"}, "[5]": {"tested_on": "neutral proteases derived from human leukocytes", "assay": "Leukocyte Neutral Proteases Inhibitor Assay", "type": "biochemical", "settings": "for Percent Inhibition of Neutral Protease Activity ^3 H: ^3 H label; for Percent Inhibition of Neutral Protease Activity ^35 S: ^35 S label", "method": "(§1) An active inhibitor would inhibit the degradation of the collagen fibril; (iii) Leukocyte Neutral Proteases Inhibitor Assay--This test measures the ability of neutral proteases derived from human leukocytes to degrade radiolabeled proteoglycans entrapped in polyacrylamide beads.\n(iii) Leukocyte Neutral Proteases Inhibitor Assay\nAssays of Leukocyte Neutral Proteases Using ^3 H/^35 S Labeled Proteoglycans\nThis assay system contained (total volume of 1 ml.) 60 mM Tris-Cl, pH 7.4; 2.5 mM calcium chloride; 2.5 mM magnesium chloride; 2 mg. (dry weight) of polyacrylamide beads entrapped with labeled proteoglycans, and an aliquot of the leukocyte neutral protease preparation. The reaction mixture was incubated at 37° C. for 30 minutes in a shaking water bath. The reaction was terminated by the addition of 0.2 ml. of 5% HCl (v/v). After five minutes at room temperature, the mixture was centrifuged and the clear supernatant (0.6 ml.) was assayed for radioactivity. To determine the effect of the test compounds on degradation of proteoglycans by neutral proteases, various concentrations of the compounds were added to the reaction mixture. Appropriate blanks were included."}, "[6]": {"target": "T2, Gingival Crevicular Fluid Collagenase (Homo sapiens, UniProt P22894)", "T2 construct": "from tissue; host or cells: gingival crevicular fluid of a volunteer with periodontal disease", "T2 sequence (P22894 101-467)": "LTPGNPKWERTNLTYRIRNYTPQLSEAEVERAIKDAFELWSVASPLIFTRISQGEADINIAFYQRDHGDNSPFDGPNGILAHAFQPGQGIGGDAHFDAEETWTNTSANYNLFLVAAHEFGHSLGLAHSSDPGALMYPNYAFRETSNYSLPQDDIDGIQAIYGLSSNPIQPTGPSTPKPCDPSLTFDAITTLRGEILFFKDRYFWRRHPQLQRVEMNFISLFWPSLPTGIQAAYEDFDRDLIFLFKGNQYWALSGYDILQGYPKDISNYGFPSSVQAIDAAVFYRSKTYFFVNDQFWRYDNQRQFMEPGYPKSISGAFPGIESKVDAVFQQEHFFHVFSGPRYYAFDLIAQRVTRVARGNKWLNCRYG", "assay": "Crevicular Fluid Assay", "type": "biochemical", "settings": "diseased crevicular fluid + 30 mcg./ml. compound; control 66 ± 9; p<0.0005", "source_text": "as §1\n(ii) Crevicular Fluid Assay\nEffect of Test Compounds on Gingival Crevicular Fluid Collagenase\nSince studes by Golub, et al., Dental Res., 55, 1049 (1976) have shown that the crevicular collagenase plays a major role in the degradation of collagen in periodontal tissue, the effect of test compounds on collagen degradation by this system was examined. A volunteer with diagnosed periodontal disease was used. […] After one minute, the filter paper strip was removed and the volume of the gingival crevicular fluid was measured with the aid of the Periotron (Harco Electronics, Ltd., Winnipeg, Canada). The volume of the fluid gathered from the crevice by the filter paper strip is translated by a unique transducer onto a digital readout screen. […] After reading on the meter, 1 μl. of trypsin (1.5 μg./ml.) was added to the filter paper (to activate any latent collagenase present) and after five minutes at room temperature 1 μl. of aprotinin was added. […] The tubes were centrifuged as described above and a 200 μl. aliquot of the clear supernatant was assayed for radioactivity."}, "[7]": {"tested_on": "fibroblast collagenase and leukocyte neutral protease", "assay": "Enzymatic Degradation of Collagen of Human Gingiva", "type": "biochemical", "settings": "37° C., 36 hours, control 102.3", "method": "The test compounds are able to inhibit the degradation of collagen of gingival tissue. Dried pieces of human gingiva were incubated at 37° C. for 36 hours with fibroblast collagenase and leukocyte neutral protease in the presence of test compound (30 and 50 μg./ml.). Antibiotics were present to prevent bacterial growth. After incubation, the residual tissue was hydrolyzed in 6 N hydrochloric acid and the hydroxyproline content (collagen) was determined. When collagenase and neutral protease were added to human gingiva, approximately 100 μg of collagen/mg. dry tissue was digested. If the test compound was present, degradation of gingival collagen was inhibited."}}, "note": "Several values for one entry are separate records, joined by “and”; a condition that tells them apart may be missing. Equal values may be shown once. Where a name gives a salt, the structure may show the parent alone.", "data": [{"smiles": "O=C(Nc1ccc(C(=O)Nc2ccc3cc(S(=O)(=O)O)cc(O)c3c2)cc1)Nc1ccc(C(=O)Nc2ccc3cc(S(=O)(=O)O)cc(O)c3c2)cc1", "note": "[6,6'-[Ureylenebis(p-phenylenecarbonylimino)]bis[4-hydroxy-2-naphthalenesulfonic acid]tetrasodium salt]", "values": [{"measurement": "inhibition at 30 µg/mL", "setting": "[1]", "value": 95, "unit": "%"}]}, {"smiles": "Cc1ccc(C(=O)Nc2ccc(S(=O)(=O)O)c3cc(S(=O)(=O)O)cc(S(=O)(=O)O)c23)cc1NC(=O)c1cccc(NC(=O)Nc2cccc(C(=O)Nc3cc(C(=O)Nc4ccc(S(=O)(=O)O)c5cc(S(=O)(=O)O)cc(S(=O)(=O)O)c45)ccc3C)c2)c1", "note": "[Suramin]", "values": [{"measurement": "inhibition of the activity of collagenase", "setting": "[2]", "value": "not inhibiting the action of collagenase"}]}, {"smiles": "CC(=O)N[C@@H](CS)C(=O)O", "note": "[acetylcysteine]", "values": [{"measurement": "treatment of acute and chronic corneal ulceration", "setting": "[3]", "value": "effective"}, {"measurement": "frequency of ulceration", "setting": "[4]", "value": "reduce the frequency of ulceration"}]}, {"smiles": "O=C(Nc1cccc(C(=O)Nc2ccc3cc(S(=O)(=O)O)cc(O)c3c2)c1)Nc1cccc(C(=O)Nc2ccc3cc(S(=O)(=O)O)cc(O)c3c2)c1", "note": "[6,6'-[Ureylenebis(3,1-phenylenecarbonylimino)]bis[4-hydroxy-] [6,6'-[Ureylenebis(m-phenylenecarbonylimino)]bis[4-hydroxy-2-naphthalenesulfonic acid]disodium salt]", "values": [{"measurement": "Percent Inhibition of Neutral Protease Activity ^3 H", "setting": "[5]; 0.5 mcg./ml.", "value": 0, "unit": "%"}, {"measurement": "Percent Inhibition of Neutral Protease Activity ^35 S", "setting": "[5]; 0.5 mcg./ml.", "value": 0, "unit": "%"}, {"measurement": "Percent Inhibition of Neutral Protease Activity ^3 H", "setting": "[5]; 1.0 mcg./ml.", "value": 17, "unit": "%"}, {"measurement": "Percent Inhibition of Neutral Protease Activity ^35 S", "setting": "[5]; 1.0 mcg./ml.", "value": 31, "unit": "%"}, {"measurement": "Percent Inhibition of Neutral Protease Activity ^3 H", "setting": "[5]; 2.0 mcg./ml.", "value": 21, "unit": "%"}, {"measurement": "Percent Inhibition of Neutral Protease Activity ^35 S", "setting": "[5]; 2.0 mcg./ml.", "value": 37, "unit": "%"}, {"measurement": "Percent Inhibition of Neutral Protease Activity ^3 H", "setting": "[5]; 5.0 mcg./ml.", "value": 47, "unit": "%"}, {"measurement": "Percent Inhibition of Neutral Protease Activity ^35 S", "setting": "[5]; 5.0 mcg./ml.", "value": 74, "unit": "%"}, {"measurement": "Percent Inhibition of Neutral Protease Activity ^3 H", "setting": "[5]; 10.0 mcg./ml.", "value": 63, "unit": "%"}, {"measurement": "Percent Inhibition of Neutral Protease Activity ^35 S", "setting": "[5]; 10.0 mcg./ml.", "value": 91, "unit": "%"}, {"measurement": "cpm Collagen Degraded/Unit Periotron Reading", "setting": "[6]", "value": "16 ± 6", "unit": "cpm"}, {"measurement": "mcg. of Collagen degraded per mg. of dry gingiva", "setting": "[7]; neutral proteases plus 30 mcg./ml. compound", "value": 60.4, "unit": "mcg. per mg."}, {"measurement": "mcg. of Collagen degraded per mg. of dry gingiva", "setting": "[7]; neutral proteases plus 50 mcg./ml. compound", "value": 27.4, "unit": "mcg. per mg."}]}, {"smiles": "N[C@@H](CS)C(=O)O", "note": "[cysteine]", "values": [{"measurement": "treatment of acute and chronic corneal ulceration", "setting": "[3]", "value": "effective"}]}, {"smiles": "Cc1cc(-c2ccc(/N=N/c3c(S(=O)(=O)O)cc4cc(S(=O)(=O)O)cc(N)c4c3O)c(C)c2)ccc1/N=N/c1c(S(=O)(=O)O)cc2cc(S(=O)(=O)O)cc(N)c2c1O", "note": "[trypan blue]", "values": [{"measurement": "inhibition of the activity of collagenase", "setting": "[2]", "value": "inhibiting the activity of collagenase"}]}, {"smiles": "O=C(Nc1cccc(C(=O)Nc2ccc3cc(S(=O)(=O)O)cc(O)c3c2)c1)Nc1cccc(C(=O)Nc2ccc3cc(S(=O)(=O)O)cc(O)c3c2)c1", "note": "[6,6'-[Ureylenebis(3,1-phenylenecarbonylimino)]bis[4-hydroxy-] [6,6'-[Ureylenebis(m-phenylenecarbonylimino)]bis[4-hydroxy-2-naphthalenesulfonic acid]tetrasodium salt]", "values": [{"measurement": "% Inhibition of Collagenase", "setting": "[1]", "value": "82% and 81%"}]}, {"smiles": "O=C([O-])CN(CCN(CC(=O)[O-])CC(=O)[O-])CC(=O)[O-].[Ca+2].[Ca+2]", "note": "[Calcium ethylenediaminetetraacetate]", "values": [{"measurement": "frequency of ulceration", "setting": "[4]", "value": "reduce the frequency of ulceration"}]}, {"smiles": "O=C(Nc1cccc(C(=O)Nc2ccc3cc(S(=O)(=O)O)cc(O)c3c2)c1)Nc1cccc(C(=O)Nc2ccc3cc(S(=O)(=O)O)cc(O)c3c2)c1", "note": "[6,6'-[Ureylenebis(m-phenylenecarbonylimino)]bis[4-hydroxy-2-naphthalenesulfonic acid]disodium salt]", "values": [{"measurement": "inhibition at 30 µg/mL", "setting": "[1]", "value": 82, "unit": "%"}]}]}
